Experimental data as given in patent publication US20240000872A1, “NOVEL BACTERIOPHAGE THAT LYSES ACINETOBACTER GENUS BACTERIA HAVING RESISTANCE TO ANTIBIOTICS” (priority 2020, published 2024).

System: Acinetobacter baumannii strains
Assay: Antibiotic susceptibility test (CLSI disk diffusion test method, read per CLSI 2016); for antibiotic susceptibility class: key: ‘S’ means susceptible; ‘I’ means intermediate; ‘R’ means resistant
Type: cell-based
Design: antibiotic susceptibility test value / susceptibility test value (number given before S/I/R) / antibiotic susceptibility value: unit not given here

gentamicin
R: antibiotic susceptibility class (host strain YMC14/01/C29) | antibiotic susceptibility class (host strain YMC14/01/IP122) | antibiotic susceptibility class (host strain YMC14/01/L8) | antibiotic susceptibility class (host strain YMC14/01/P31) | antibiotic susceptibility class (host strain YMC14/01/P117) | antibiotic susceptibility class (host strain YMC14/01/P224) | antibiotic susceptibility class (host strain YMC14/01/P727) | antibiotic susceptibility class (host strain YMC14/01/P728) | antibiotic susceptibility class (host strain YMC14/01/R130) | antibiotic susceptibility class (host strain YMC14/01/R160) | antibiotic susceptibility class (host strain YMC14/01/R198) | antibiotic susceptibility class (host strain YMC14/01/R270) | antibiotic susceptibility class (host strain YMC14/01/R324) | antibiotic susceptibility class (host strain YMC14/01/R443) | antibiotic susceptibility class (host strain YMC14/01/R451) | antibiotic susceptibility class (host strain YMC14/01/R617) | antibiotic susceptibility class (host strain YMC14/01/R671) | antibiotic susceptibility class (host strain YMC14/01/R732) | antibiotic susceptibility class (host strain YMC14/01/R767) | antibiotic susceptibility class (host strain YMC14/01/R904) | antibiotic susceptibility class (host strain YMC14/01/R905) | antibiotic susceptibility class (host strain YMC14/01/R941) | antibiotic susceptibility class (host strain YMC14/01/R958) | antibiotic susceptibility class (host strain YMC14/01/R1006) | antibiotic susceptibility class (host strain YMC14/01/R1199) | antibiotic susceptibility class (host strain YMC14/01/R1659) | antibiotic susceptibility class (host strain YMC14/01/R1722) | antibiotic susceptibility class (host strain YMC14/01/R1752) | antibiotic susceptibility class (host strain YMC14/01/R2429) | antibiotic susceptibility class (host strain YMC14/01/R2572) | antibiotic susceptibility class (host strain YMC14/01/R2855) | antibiotic susceptibility class (host strain YMC14/01/R2945) | antibiotic susceptibility class (host strain YMC14/01/R3007) | antibiotic susceptibility class (host strain YMC14/01/R3129) | antibiotic susceptibility class (host strain YMC14/01/R3317) | antibiotic susceptibility class (host strain YMC14/01/R3474) | antibiotic susceptibility class (host strain YMC14/01/R3574) | antibiotic susceptibility class (host strain YMC14/01/U313) | antibiotic susceptibility class (host strain YMC14/01/U318)
16: antibiotic susceptibility test value (host strain YMC14/01/C29) | antibiotic susceptibility test value (host strain YMC14/01/IP122) | antibiotic susceptibility test value (host strain YMC14/01/L8) | antibiotic susceptibility test value (host strain YMC14/01/P31) | antibiotic susceptibility test value (host strain YMC14/01/P117) | antibiotic susceptibility test value (host strain YMC14/01/P224) | antibiotic susceptibility test value (host strain YMC14/01/P727) | antibiotic susceptibility test value (host strain YMC14/01/P728) | antibiotic susceptibility test value (host strain YMC14/01/R130) | antibiotic susceptibility test value (host strain YMC14/01/R160) | antibiotic susceptibility test value (host strain YMC14/01/R198) | antibiotic susceptibility test value (host strain YMC14/01/R270) | antibiotic susceptibility test value (host strain YMC14/01/R324) | antibiotic susceptibility test value (host strain YMC14/01/R443) | antibiotic susceptibility test value (host strain YMC14/01/R451) | antibiotic susceptibility test value (host strain YMC14/01/R617) | antibiotic susceptibility test value (host strain YMC14/01/R671) | antibiotic susceptibility test value (host strain YMC14/01/R732) | antibiotic susceptibility test value (host strain YMC14/01/R767) | antibiotic susceptibility test value (host strain YMC14/01/R904) | antibiotic susceptibility test value (host strain YMC14/01/R905) | antibiotic susceptibility test value (host strain YMC14/01/R941) | antibiotic susceptibility test value (host strain YMC14/01/R958) | antibiotic susceptibility test value (host strain YMC14/01/R1006) | antibiotic susceptibility test value (host strain YMC14/01/R1199) | antibiotic susceptibility test value (host strain YMC14/01/R1659) | antibiotic susceptibility test value (host strain YMC14/01/R1722) | antibiotic susceptibility test value (host strain YMC14/01/R1752) | antibiotic susceptibility test value (host strain YMC14/01/R2429) | antibiotic susceptibility test value (host strain YMC14/01/R2572) | antibiotic susceptibility test value (host strain YMC14/01/R2855) | antibiotic susceptibility test value (host strain YMC14/01/R2945) | antibiotic susceptibility test value (host strain YMC14/01/R3007) | antibiotic susceptibility test value (host strain YMC14/01/R3129) | antibiotic susceptibility test value (host strain YMC14/01/R3317) | antibiotic susceptibility test value (host strain YMC14/01/R3474) | antibiotic susceptibility test value (host strain YMC14/01/R3574) | antibiotic susceptibility test value (host strain YMC14/01/U313)
1: antibiotic susceptibility test value (host strain YMC14/01/R257)
S: antibiotic susceptibility class (host strain YMC14/01/R257) | antibiotic susceptibility class (host strain YMC14/01/R560)
2: antibiotic susceptibility test value (host strain YMC14/01/R560)
I: antibiotic susceptibility class (host strain YMC14/01/R921)
8: antibiotic susceptibility test value (host strain YMC14/01/R921)
